# According to patent US20260053778A1, “USE OF NOVEL PPAR ACTIVITY MODULATOR FOR PREVENTION, AMELIORATION OR TREATMENT OF DEGENERATIVE BRAIN DISEASES” (POSTECH RESEARCH AND BUSINESS DEVELOPMENT FOUNDATION, priority 2022, published 2026):
# Legend:
# primary microglia = assay: Quantitative PCR of inflammation genes in primary microglia; format: cell-based, mouse; settings: qPCR
# Source text: In addition, the gene expression levels of Il-6. Il-1 #, and iNOS, which are NF-κB target genes related to chronic inflammation, and Arg-1, an anti-inflammatory marker, were confirmed by quantitative PCR (qPCR) analysis in primary microglia.
# Total RNA was isolated using TRI reagent (Molecular Research Center, Cincinnati, OH, USA). RNA was reverse transcribed using the ImProm-II Reverse Transcription System (Promega) according to the manufacturer's instructions. For detection and quantification, the StepOnePlus Real-Time PCR System (Applied Biosystems, Foster City, CA, USA) was used with FastStart Universal SYBR Green Master (Roche, Basel, Switzerland). Real-time qPCR data were analyzed using the comparative CT method.
# 5×FAD mice = assay: Aβ monomer Western blot and filter trap assay of brain lysates; format: in vivo, mouse; settings: brain tissue lysates, 6e10 Western blot
# Description: To investigate the soluble and insoluble Aβ components, two extraction steps were performed. Left hemisphere samples were homogenized at a concentration of 100 mg/mL in cold Tris-buffered saline (TBS consisting of 50 mM Tris-pH 7.5 and 150 mM NaCl) with a protease inhibitor cocktail (Thermo Fisher Scientific, Waltham, MO, USA). After centrifugation at 15,000 rpm for 1 hour at 4° C., the supernatant of the sample was used for western blotting. Insoluble proteins were extracted from the pellet by dissolving in 5 M guanidine buffer (5 M guanidine HCl and 150 mM NaCl-pH 7.5). Soluble and insoluble protein samples were stored at −80° C.
# The insoluble fraction of the protein lysate from 5×FAD mice was diluted in 1% SDS-PBS and boiled at 95° C. for 5 min. The membrane was pre-equilibrated with 1×TBS. A dot blotter apparatus (Bio-Rad Laboratories, Hercules, CA, USA) was used for sample application, and the 6e10 antibody was used to detect the Aβ content in the brain lysate from 5×FAD mice treated with DTMB. The sample size was 3 mice per group.
# RAW 264.7 macrophages = assay: NO production inhibition (Griess assay) in LPS-treated macrophages; format: cell-based; settings: LPS-induced
# Description: Previous studies have reported that all three subtypes of PPAR inhibit inflammatory responses through inhibition of the activity and quantitative changes of the NF-κB transcription factor, a major regulator of inflammatory responses.
# First, RAW 264.7 macrophages were cultured in a humidified atmosphere of 37° C. in a 5% CO2 incubator with DMEM containing 10% FBS and 1% penicillin/streptomycin. After inducing an inflammatory response in RAW 264.7 macrophages by LPS treatment, the Griess assay (Promega) was performed according to the manufacturer's instructions to measure the concentration of nitrite.
# NF-κB = NF-κB gene expression by qPCR after MG132 and DTMB; format: cell-based; settings: MG132 (20 μM) 6 hours, DTMB (25 μM) 24 hours
# Description: In addition, to inhibit proteasomal degradation, cells were treated with MG132 (20 μM) for 6 hours and DTMB (25 μM) for 24 hours, and then the gene expression level of NF-κB was confirmed by qPCR analysis. As shown in the results of FIGS. 2L and 2M, this response was mediated by proteasomal degradation rather than transcriptional inhibition, since there was no change in the mRNA level of NF-κB.
# [1] = system: primary microglia isolated from mouse; assay: Cytokine ELISA in primary microglia; format: cell-based; settings: primary microglia treated with LPS or Aβ aggregates, DTMB 24 h
# Description: To confirm a more clear anti-inflammatory effect, the microglia cell line (BV2) and microglia isolated from mice were treated with lipopolysaccharide (LPS) and Aβ aggregates to induce an inflammatory response, and then DTMB was treated to measure the decrease in cytokine levels in microglia by DTMB treatment using ELISA.
# Primary microglial culture was performed as described in the literature [Lian H, Roy E, Zheng H. Protocol for primary microglial culture preparation. Bio-protocol. 2016; 6(21)]. Postnatal day 3 mice were used for primary microglial cell preparation. Newborn mouse pups were anesthetized on ice and then sacrificed. The isolated cortex and hippocampus were collected after removing the meninges. The brain tissues were dissociated by incubation with trypsin (2.5%) in HBSS (Gibco, Gaithersburg, MD, USA) for 15 min. The cell homogenate was then cultured in M-CSF (20 ng/mL, R&D Systems) supplemented with DMEM-F12 medium containing 10% fetal bovine serum, 10% horse serum, 1% GlutaMAX (Gibco, MD, USA), and 1% penicillin/streptomycin (Welgene, Korea). After 10 days, microglia were purified by shaking at 260 rpm for 2 h.
# Cytokine levels (TNF-α, IL-1β, and IL-6) were measured in the media of BV2 microglia and primary microglia treated with LPS (1 μg/mL) and human Aβ1-42 (5 μg/mL). […]
# [2] = target: T1, HIS-tagged recombinant PPAR β/δ protein (Homo sapiens, UniProt Q03181); assay: CNBr-drug and protein binding experiment, PPARβ/δ; settings: Western blotting after 24 h incubation
# T1 sequence (Q03181 211-439 limits assumed): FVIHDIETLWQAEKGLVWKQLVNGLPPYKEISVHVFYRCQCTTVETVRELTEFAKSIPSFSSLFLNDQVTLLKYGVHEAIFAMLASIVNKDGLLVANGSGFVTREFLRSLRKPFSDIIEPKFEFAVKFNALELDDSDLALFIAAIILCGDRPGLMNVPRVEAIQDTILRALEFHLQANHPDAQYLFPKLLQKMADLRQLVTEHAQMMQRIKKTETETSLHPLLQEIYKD
# Description: Since the computer prediction program predicted that DTMB binds to PPAR transcription factors, CNBr-drug and protein binding experiments were conducted to confirm whether DTMB actually binds to PPAR. To determine the actual degree of drug-protein binding, the reaction of the protein of the PPAR-α, β/δ, γ ligand-binding portion with the DTMB drug-bound CNBr beads was confirmed through Western blotting.
# Specifically, CNBr Sepharose 4B beads were prepared and activated according to the instructions. 100 mg of CNBr-activated Sepharose 4B beads were incubated with drugs or DMSO at 4° C. for 18 h. The drug-bound beads reacted with HIS-tagged recombinant PPAR α, β/δ, and γ proteins. After 24 h of incubation, Western blotting experiments were performed to confirm whether the recombinant proteins bound to the drug-bound beads.
structure (smiles),measurement,setting,value
"COc1ccc(-c2cc(=O)oc3c(C)c(OC(=O)[C@H](Cc4c[nH]c5ccccc45)NC(=O)OC(C)(C)C)ccc23)cc1 [DTMB, [4-(4-Methoxyphenyl)-8-methyl-2-oxochromen-7-yl](2S)-3-(1H-indol-3-yl)-2-[(2-methylpropan-2-yl)oxycarbonylamino]propanoate]",Expression of Il-1β,primary microglia,decreased
same,Expression of Il-6,primary microglia,decreased
same,Expression of anti-inflammatory marker Arg-1,primary microglia,induced
same,Expression of iNOS,primary microglia,decreased
same,Amyloid β monomers,5×FAD mice,not reduced
same,NO production inhibition compared with PPAR modulators,RAW 264.7 macrophages; at the same concentration,"more effectively than WY14643, a PPARα modulator, and rosiglitazone, a PPARγ modulator"
same,IC50,"RAW 264.7 macrophages; Mus musculus, RAW264.7, Griess reagent",1230 nM
same,mRNA level of NF-κB,NF-κB,no change
same,Level of IL-6,[1],statistically significantly reduced
same,Level of TNF-α,[1],statistically significantly reduced
same,Binding of PPARβ/δ ligand-binding protein to drug-bound CNBr beads,[2],binds to all subtypes of PPAR
